From US11337427B2, “Antimicrobial agents and their use in therapy” (priority 2013, dated 2022)

What was measured:
[1] = system: Saccharomyces cerevisiae wild type BY4743; test: Yeast growth study in microplates (OD 600 nm); conditions: for concentration required to retard growth of the yeast cells: agent alone, wild-type yeast
Procedure: Growth studies on wild-type (wt) yeast and the Hog1 mutant were performed. […] The OD (600 nm) in each well was read every 20 minutes using an integrated Beckman Coulter Paradigm microplate reader. The growth of the yeast strains in the microplates was monitored for approximately 25 hours.

[2] = system: Yeast cells (Saccharomyces cerevisiae); test: Cellular import of FAM-labelled ATX-101 (laser scanning microscopy); type: cell-based; conditions: FAM-labelled peptide, 1-2 minutes incubation
Procedure: Yeast cells (Saccharomyces cerevisiae) were grown in LB media. A fluorescently labelled APIM peptide (ATX-101-FAM) was added to the media and incubated for 1-2 minutes before an aliquot of cells was removed and analyzed on a Zeiss LSM 510 Meta laser scanning microscope equipped with a Plan-Apochromate 63×/1.4 oil immersion objective.

[3] = system: gram positive bacteria (Enterococcus faecium CCUG 37832, Enterococcus faecium CTC 492, Micrococcus luteus ATCC 9341); test: Robotic MIC assay, gram positive bacteria; conditions: FIG. 5
[4] = system: Staphylococcus aureus MRSA 1096; test: MIC assay; conditions: starting concentration 150 μg/ml
[5] = system: Staphylococcus aureus NCTC 6571; test: MIC assay; conditions: starting concentration 150 μg/ml
[6] = system: gram negative bacteria (Pseudomonas aeruginosa ATCC 15692, Acinetobacter baumanni ATCC 19606, Escherichia coli ATCC 25922, Pseudomonas aeruginosa TO-5A); test: Robotic MIC assay, gram negative bacteria; conditions: FIG. 4
E. coli NCIMB 12210 = conditions: E. coli NCIMB 12210, FIG. 7
E. coli BL21 (ripl) = test: Overexpression of APIM peptides in E. coli (growth, OD); type: cell-based; conditions: induced with 1 mM IPTG; no cell-penetrating peptide
Source text: In order to verify further that the anti-microbial effect of the APIM peptides arises from the APIM sequence, peptides containing only the APIM sequence (i.e. without a cell-penetrating peptide) were over-expressed in E. coli using the expression vector pET28. The APIM peptide was expressed alone or as part of a fusion protein with EYFP. Expression of EYFP alone was used as a control.
The expression vectors containing the respective peptides were transfected into the bacterial strain E. coli BL21 (ripl). Single colonies, 4-6 of each strain, were inoculated in […] LB media (+Km/Clm) in 96 wells plates, and incubated at 37° C. Overnight cultures were diluted 1:100 and grown for 1 h before induction with 1 mM IPTG (initiating peptide expression). OD was measured every hour.

N.N.[Cl][Pt][Cl] [cisplatin]
concentration required to retard growth of the yeast cells [1]: 500 µM | effect on growth of the yeast cells ([1]; cisplatin 125 μM alone): not sufficient to retard growth | effect on growth of the yeast cells ([1]; cisplatin 2000 μM alone): growth is not completely inhibited

Ac-MDRWLVKWKKKRKIRRRRRRRRRRR [ATX-101]
cellular import [2]: imported into yeast cells | concentration from which growth is inhibited [3]: about 1 μM | Factor of inhibition [4]: 0.0625 | Factor of inhibition [5]: 1 | concentration required to retard growth of the yeast cells [1]: ≥ 20 µM | concentration from which growth is inhibited [6]: about 1 μM | reduction of the MIC for novobiocin (E. coli NCIMB 12210): 16 fold

RFSLK (APIM variant) [APIM variant over-expressed in E. coli]
effect of overexpression on bacterial growth (E. coli BL21 (ripl)): particularly effective

RWLTK (APIM variant) [APIM variant over-expressed in E. coli]
effect of overexpression on bacterial growth (E. coli BL21 (ripl)): particularly effective

RWLVK (APIM variant)
effect of overexpression on bacterial growth (E. coli BL21 (ripl)): inhibits bacterial growth

RWLVP (APIM variant) [APIM variant over-expressed in E. coli]
effect of overexpression on bacterial growth (E. coli BL21 (ripl)): particularly effective
